These are literature values, as cited in patent publication US20080292714A1, “BONE TARGETING OF DEGRADABLE DRUG FILLED NANOPARTICLES” (Semafore Pharmaceuticals Inc., priority 2003, published 2008).

For series [1] the following is noted: portion not accumulated in skeleton.
For a further series, the target named is T1, p53 (Mus musculus, UniProt P02340).
T1 construct: endogenous in cells; host or cells: living mice, C57BL and Balb/c strains

The test system of series [2] is C8 (mouse embryo fibroblasts transformed with Ela+ras) cells. The following applies: 10 micromolar.

Where only a bound is given, the exact number is not on record here.

T1 sequence (P02340 whole entry): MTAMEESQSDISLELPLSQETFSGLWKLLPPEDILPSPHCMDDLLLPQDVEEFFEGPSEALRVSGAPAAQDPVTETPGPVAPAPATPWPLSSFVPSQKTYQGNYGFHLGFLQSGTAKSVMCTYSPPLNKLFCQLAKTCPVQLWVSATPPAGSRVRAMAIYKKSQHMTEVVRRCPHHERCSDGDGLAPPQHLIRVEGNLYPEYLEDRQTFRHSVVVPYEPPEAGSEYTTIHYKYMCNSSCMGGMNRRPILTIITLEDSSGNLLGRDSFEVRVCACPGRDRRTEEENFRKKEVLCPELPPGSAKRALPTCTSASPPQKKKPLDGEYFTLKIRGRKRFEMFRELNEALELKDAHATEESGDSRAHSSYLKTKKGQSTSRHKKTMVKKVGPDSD

On to `O=P([O-])(O)CN(CCN(CP(=O)([O-])O)CP(=O)(O)O)CP(=O)([O-])O.[153Sm+3]` [^153Sm-EDTMP], for which the “time after administration at which excretion is almost complete” value in series [1] was at most 6 h.
Take `Cc1ccc(C(=O)Cn2c3c(sc2=N)CCCC3)cc1` [pifithrin-α, 2-[2-imino-4,5,6,7-tetrahydro-1,3-benzothiazol-3(2H)-yl]-1-(4-methylphenyl)-1-ethanone]: the “tumors or pathological lesions in gamma-irradiated survivors” value on p53 (7 months post-irradiation) is “no tumors or pathological lesions were found”. At p53 (irradiated treated mice), the “weight loss versus controls” value was “less weight-loss than controls”. At p53 (p53-null mice controls), the “protective effect in p53-null mice treated with radiation” value is “no protective effect”. Further, the “rescue from 60% killing doses of gamma radiation” value at p53 (single i.p. injection 2.2 mg/kg, 8 Gy C57BL, 6 Gy Balb/c) is “completely rescued”. Besides, the “inhibition of apoptosis induced by doxorubicin, etoposide, Taxol, cytosine arabinoside, UV light, gamma radiation” value in series [2] was “inhibited apoptosis”.
